One data set deals with S. cerevisiae BY4741. Nature of the data set: Biocompatibility of extractants: glucose utilization rate of the microorganism during extraction. In kind it is cell-based, Saccharomyces cerevisiae. The conditions noted are these: percentage of average value for oleyl alcohol (Comparative Example A); 25 mL extractant/75 mL culture broth, 40 g/L initial isobutanol, 30° C., 8 hours. As for the experimental part: (§1) Each extractant was contacted with a fermentation medium and isobutanol as described below to determine the partition coefficient of the extractant. The biocompatibility of the extractant was also assessed by determining the glucose utilization rate of the microorganism during the extraction.
The following experimental procedure was used. In these experiments the amount of ethanol depended on the amount of glucose consumption but typical ethanol values were in the range of 10-15 g/L. The presence of ethanol in these concentrations is not expected to impact glucose consumption and the partitioning of butanol into the extractant. Seed shake flasks containing 250 mL of yeast extract/peptone/dextrose (YPD) medium were inoculated with 150 μL of S. cerevisiae BY4741 inoculum and incubated for about 14 hours at 30° C. with shaking at 250 rpm in a table top shaker (Innova 4230, New Brunswick scientific, Edison, N.J.). When the OD600 reached about 0.4, the glucose concentration in the culture broth was analyzed rapidly by a Select Biochemistry Analyzer and extra glucose was added to reach a final concentration of about 25 g/L. The culture broth was divided into 125 mL flasks, each containing 75 mL of the culture broth. After one hour of incubation at 30° C. with shaking at 200 rpm, 3.75 mL of isobutanol was added to each flask in order to bring the initial isobutanol concentration in the aqueous phase to 40 g/L. The incubation of the biphasic fermentation medium comprising an aqueous phase and a butanol-containing organic phase was continued at 30° C. with shaking at 100 rpm for 8 hours. The aqueous and organic phases in each flask were separated by decantation. The aqueous phase was centrifuged (2 minutes on 13,000 rpm with an Eppendorf centrifuge model 5415R) to remove cells and the supernatant analyzed for glucose, ethanol, and isobutanol by HPLC.
Glucose utilization rates were calculated by noting the difference in glucose concentrations between samples and the time between samples and computing a rate accordingly, for example ([glucose]t2−[glucose]t1)/(t2−t1) where t1 refers to a time earlier than t2 and [glucose] means the concentration of glucose.
Comparative Example A was repeated three times and the results averaged. For the extractants of Comparative Examples A-G, the partition coefficient for isobutanol and the glucose utilization rate are expressed below in Table 3 as percentages of the average values determined for oleyl alcohol (Comparative Example A). A value greater than 100% indicates a result which is numerically larger than that for oleyl alcohol. A value less than 100% indicates a result which is numerically smaller than that for oleyl alcohol. A value of 100% indicates a result which is the same as that for oleyl alcohol. As disclosed in US Patent Application Publication No. 2009-0305370 A1, oleyl alcohol performed well in single solvent extractive fermentations for isobutanol production.
(§2) The extractants listed in Table 2 were evaluated using the procedure described above, but with the following modifications. After the culture broth was divided into 125 mL flasks, each containing 75 mL of the culture broth, oleyl alcohol was added as the first solvent to each flask in the amount shown in Table 2.
For the extractants of Examples 1-15, the partition coefficients for isobutanol and the glucose utilization rate are expressed below in Table 3, together with the results for Comparative examples A-G, as percentages of the average values determined for oleyl alcohol (Comparative Example A). A value greater than 100% indicates a result which is numerically larger than that for oleyl alcohol. A value less than 100% indicates a result which is numerically smaller than that for oleyl alcohol. A value of 100% indicates a result which is the same as that for oleyl alcohol.

The nature of data set [1]: Partition coefficient for isobutanol between extractant (organic phase) and fermentation medium (aqueous phase). The data set is classed as physicochemical. The conditions noted are these: isobutanol partition coefficient (organic/aqueous) as percentage of average value for oleyl alcohol (Comparative Example A); 40 g/L initial isobutanol, 30° C. As for the experimental part: as §1
The following experimental procedure was used. […] When the OD600 reached about 0.4, the glucose concentration in the culture broth was analyzed rapidly by a Select Biochemistry Analyzer and extra glucose was added to reach a final concentration of about 25 g/L. The culture broth was divided into 125 mL flasks, each containing 75 mL of the culture broth. After one hour of incubation at 30° C. with shaking at 200 rpm, 3.75 mL of isobutanol was added to each flask in order to bring the initial isobutanol concentration in the aqueous phase to 40 g/L. The incubation of the biphasic fermentation medium comprising an aqueous phase and a butanol-containing organic phase was continued at 30° C. with shaking at 100 rpm for 8 hours. The aqueous and organic phases in each flask were separated by decantation.
Partition coefficients for the isobutanol distribution between the organic and aqueous phases were calculated from the known amount of isobutanol added to the flask and the isobutanol concentration data measured for the aqueous phase. The concentration of isobutanol in the extractant phase was determined by the mass balance. The partition coefficient was determined as the ratio of the isobutanol concentrations in the organic and the aqueous phases, i.e., Kp=[Isobutanol]Organic phase/[isobutanol]Aqueous phase.
(§3) A value greater than 100% indicates a result which is numerically larger than that for oleyl alcohol. A value less than 100% indicates a result which is numerically smaller than that for oleyl alcohol. A value of 100% indicates a result which is the same as that for oleyl alcohol.
as §2, §3

Take `CCCCCCCC/C=C\CCCCCCCCO` [Comparative Ex. A, Oleyl Alcohol]: the “% Glucose Utilization Rate” value in the data set with S. cerevisiae BY4741 is 100%. For the same compound, the “% KP” value in data set [1] was found to be 100%.

`CCCCCCCCCO` [Comparative Ex. B, 1-Nonanol]: the “% Glucose Utilization Rate” value with S. cerevisiae BY4741 came to 0%.

As for `CCCCCCCCCCCO` [Comparative Ex. C, 1-Undecanol], in the data set with S. cerevisiae BY4741, the “% Glucose Utilization Rate” value was determined as 0%. For the same compound, in data set [1], the “% KP” value was 127.0%.

As for `CCCCCCCCCC(C)O` (stereo not drawn) [Comparative Ex. D, 2-Undecanol], in the data set with S. cerevisiae BY4741, the “% Glucose Utilization Rate” value was found to be 0%. For the same compound, in data set [1], the “% KP” value was 139.0%.

Consider `CCCCCCCCC=O` [Comparative Ex. E, 1-Nonanal], for which the “% Glucose Utilization Rate” value in the data set on S. cerevisiae BY4741 is listed as 0%. In addition, the “% KP” value in data set [1] came to 132.6%.

Regarding `CCCCCCCCCCO` [Comparative Ex. F, 1-Decanol], the “% Glucose Utilization Rate” value with S. cerevisiae BY4741 was 0%. Also, in data set [1], the “% KP” value is on record as 139.0%.

Consider `CCCCCCCCCCCCO` [Comparative Ex. G, 1-Dodecanol], for which, in the data set with S. cerevisiae BY4741, the “% Glucose Utilization Rate” value is listed as 84%.

The values are drawn from patent US20110097773A1, “METHOD FOR PRODUCING BUTANOL USING EXTRACTIVE FERMENTATION” (BUTAMAX(TM) ADVANCED BIOFUELS LLC, priority 2009, published 2011).
